Results: ChEMBL document CHEMBL1201862, “PubChem BioAssay data set” (2004)
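Cultured in 96-well plates, cells were exposed to test compound for 48 hours across five concentrations. At the GI50, growth is halved.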 Calls of active or inactive are those of the source. No stated cut-off is given here; in the data, active = GI50 up to about 1.1 µM and inactive = higher.

Key:
Experiment in all cases: DTP human tumour cell line panel, 48 h
[1] = test system: OVCAR-3
[2] = test system: DLD-1
[3] = test system: SW-620
[4] = test system: SK-MEL-28
[5] = test system: SNB-19
[6] = test system: HOP-92
[7] = test system: U-251
[8] = test system: RXF 393
[9] = test system: CCRF-CEM
[10] = test system: SF-268
[11] = test system: HOP-62
[12] = test system: UO-31
[13] = test system: HCT-15
[14] = test system: HOP-18
[15] = test system: DMS-114
[16] = test system: RPMI-8226
[17] = test system: SK-MEL-2
[18] = test system: XF498
[19] = test system: HT-29
[20] = test system: MOLT-4
[21] = test system: LXFL 529
[22] = test system: HL-60
[23] = test system: SF-295
[24] = test system: 786-0
[25] = test system: A549
[26] = test system: DMS-273
[27] = test system: HCC 2998
[28] = test system: CAKI-1
[29] = test system: Malme-3M
[30] = test system: SN12C
[31] = test system: COLO 205
[32] = test system: TK-10
[33] = test system: SNB-78
[34] = test system: EKVX
[35] = test system: LOX IMVI
[36] = test system: M14
[37] = test system: UACC-257
[38] = test system: SK-MEL-5
[39] = test system: OVCAR-4
[40] = test system: K562
[41] = test system: OVCAR-8
[42] = test system: SK-OV-3
[43] = test system: SNB-75
[44] = test system: ACHN
[45] = test system: NCI-H23
[46] = test system: KM-20L2
[47] = test system: KM12
[48] = test system: NCI-H522
[49] = test system: NCI-H226
[50] = test system: NCI-H460
[51] = test system: OVCAR-5
[52] = test system: SF-539
[53] = test system: SR
[54] = test system: IGROV-1
[55] = test system: A498
[56] = test system: M19-MEL
[57] = test system: HCT-116
[58] = test system: UACC-62

Compound: O=c1[nH]cc(F)c(=O)n1C1OC(CO)C(O)C1O (centres undefined)
- GI50 [1]: > 100 µM (inactive)
- GI50 [2]: > 100 µM (inactive)
- GI50 [3]: > 100 µM (inactive)
- GI50 [4]: > 100 µM (inactive)
- GI50 [5]: > 100 µM (inactive)
- GI50 [6]: > 100 µM (inactive)
- GI50 [7]: > 100 µM (inactive)
- GI50 [8]: > 100 µM (inactive)
- GI50 [9]: > 100 µM (inactive)
- GI50 [10]: > 100 µM (inactive)
- GI50 [11]: > 100 µM (inactive)
- GI50 [12]: > 100 µM (inactive)
- GI50 [13]: > 100 µM
- GI50 [14]: > 100 µM (inactive)
- GI50 [15]: > 100 µM (inactive)
- GI50 [16]: > 100 µM (inactive)
- GI50 [17]: > 100 µM (inactive)
- GI50 [18]: > 100 µM (inactive)
- GI50 [19]: > 100 µM (inactive)
- GI50 [20]: > 100 µM (inactive)
- GI50 [21]: > 100 µM (inactive)
- GI50 [22]: > 100 µM (inactive)
- GI50 [23]: > 100 µM (inactive)
- GI50 [24]: > 100 µM (inactive)
- GI50 [25]: > 100 µM (inactive)
- GI50 [26]: > 100 µM (inactive)
- GI50 [27]: > 100 µM (inactive)
- GI50 [28]: > 100 µM (inactive)
- GI50 [29]: > 100 µM (inactive)
- GI50 [30]: > 100 µM (inactive)
- GI50 [31]: > 100 µM (inactive)
- GI50 [32]: > 100 µM (inactive)
- GI50 [33]: > 100 µM (inactive)
- GI50 [34]: > 100 µM (inactive)
- GI50 [35]: > 100 µM (inactive)
- GI50 [36]: > 100 µM (inactive)
- GI50 [37]: > 100 µM (inactive)
- GI50 [38]: > 100 µM (inactive)
- GI50 [39]: > 100 µM (inactive)
- GI50 [40]: > 100 µM (inactive)
- GI50 [41]: > 100 µM (inactive)
- GI50 [42]: > 100 µM (inactive)
- GI50 [43]: > 100 µM (inactive)
- GI50 [44]: > 100 µM (inactive)
- GI50 [45]: > 100 µM (inactive)
- GI50 [46]: > 100 µM (inactive)
- GI50 [47]: > 100 µM (inactive)
- GI50 [48]: > 100 µM (inactive)
- GI50 [49]: > 100 µM (inactive)
- GI50 [50]: > 100 µM (inactive)
- GI50 [51]: > 100 µM (inactive)

Compound: CCOc1ccc2c(c1)[n+]([O-])c(C(N)=O)c(N)[n+]2[O-]
- GI50 [1]: > 100 µM (inactive)
- GI50 [2]: > 100 µM (inactive)
- GI50 [3]: > 100 µM (inactive)
- GI50 [4]: > 100 µM (inactive)
- GI50 [5]: > 100 µM (inactive)
- GI50 [6]: > 100 µM (inactive)
- GI50 [52]: > 100 µM (inactive)
- GI50 [7]: > 100 µM (inactive)
- GI50 [8]: > 100 µM (inactive)
- GI50 [9]: 94 µM (inactive)
- GI50 [10]: > 100 µM (inactive)
- GI50 [11]: > 100 µM (inactive)
- GI50 [12]: > 100 µM (inactive)
- GI50 [14]: > 100 µM (inactive)
- GI50 [15]: > 100 µM (inactive)
- GI50 [17]: > 100 µM (inactive)
- GI50 [53]: > 100 µM (inactive)
- GI50 [18]: > 100 µM (inactive)
- GI50 [19]: > 100 µM (inactive)
- GI50 [20]: > 100 µM (inactive)
- GI50 [21]: > 100 µM (inactive)
- GI50 [54]: > 100 µM (inactive)
- GI50 [22]: > 100 µM (inactive)
- GI50 [23]: > 100 µM (inactive)
- GI50 [24]: > 100 µM (inactive)
- GI50 [25]: > 100 µM (inactive)
- GI50 [26]: > 100 µM (inactive)
- GI50 [55]: > 100 µM (inactive)
- GI50 [28]: > 100 µM (inactive)
- GI50 [29]: > 100 µM (inactive)
- GI50 [30]: > 100 µM (inactive)
- GI50 [31]: > 100 µM (inactive)
- GI50 [56]: > 100 µM (inactive)
- GI50 [33]: > 100 µM (inactive)
- GI50 [34]: > 100 µM (inactive)
- GI50 [36]: > 100 µM (inactive)
- GI50 [37]: > 100 µM (inactive)
- GI50 [38]: > 100 µM (inactive)
- GI50 [39]: > 100 µM (inactive)
- GI50 [40]: > 100 µM (inactive)
- GI50 [41]: > 100 µM (inactive)
- GI50 [42]: > 100 µM (inactive)
- GI50 [43]: > 100 µM (inactive)
- GI50 [44]: > 100 µM (inactive)
- GI50 [45]: > 100 µM (inactive)
- GI50 [46]: > 100 µM (inactive)
- GI50 [47]: > 100 µM (inactive)
- GI50 [48]: > 100 µM (inactive)
- GI50 [49]: > 100 µM (inactive)
- GI50 [57]: > 100 µM (inactive)
- GI50 [50]: > 100 µM (inactive)
- GI50 [51]: > 100 µM (inactive)

Compound: Cc1ccccc1C(C#N)/C(=N/NC(=O)c1cc2ccccc2cc1O)C(=O)Nc1cccc(Cl)c1 (centres undefined)
- GI50 [1]: 5.42 µM (inactive)
- GI50 [2]: 18.4 µM (inactive)
- GI50 [3]: 7.85 µM (inactive)
- GI50 [4]: 25.1 µM (inactive)
- GI50 [5]: 37.9 µM (inactive)
- GI50 [6]: 26.4 µM (inactive)
- GI50 [52]: 26.4 µM (inactive)
- GI50 [7]: 25.6 µM (inactive)
- GI50 [9]: 4.36 µM (inactive)
- GI50 [10]: 7.69 µM (inactive)
- GI50 [11]: 27.5 µM (inactive)
- GI50 [12]: 3.13 µM (inactive)
- GI50 [13]: 22.4 µM
- GI50 [14]: 5.37 µM (inactive)
- GI50 [15]: 17.2 µM (inactive)
- GI50 [16]: 21.3 µM (inactive)
- GI50 [17]: 22.5 µM (inactive)
- GI50 [53]: 12.6 µM (inactive)
- GI50 [18]: 14.8 µM (inactive)
- GI50 [19]: 42.1 µM (inactive)
- GI50 [20]: 10.9 µM (inactive)
- GI50 [21]: 20.5 µM (inactive)
- GI50 [58]: 4.27 µM (inactive)
- GI50 [54]: 9.93 µM (inactive)
- GI50 [22]: 3.72 µM (inactive)
- GI50 [23]: 21.1 µM (inactive)
- GI50 [24]: 7.85 µM (inactive)
- GI50 [25]: 18 µM (inactive)
- GI50 [26]: 6.75 µM (inactive)
- GI50 [55]: 41.4 µM (inactive)
- GI50 [27]: 28.8 µM (inactive)
- GI50 [28]: 19.8 µM (inactive)
- GI50 [29]: 30.8 µM (inactive)
- GI50 [30]: 35.6 µM (inactive)
- GI50 [31]: 24.4 µM (inactive)
- GI50 [32]: 45.7 µM (inactive)
- GI50 [56]: 17.3 µM (inactive)
- GI50 [33]: 21.8 µM (inactive)
- GI50 [34]: 28.8 µM (inactive)
- GI50 [36]: 18.6 µM (inactive)
- GI50 [37]: 20.7 µM (inactive)
- GI50 [38]: 8.38 µM (inactive)
- GI50 [39]: 21.6 µM (inactive)
- GI50 [40]: 9.64 µM (inactive)
- GI50 [41]: 8.85 µM (inactive)
- GI50 [42]: 41.8 µM (inactive)
- GI50 [43]: 6.24 µM (inactive)
- GI50 [44]: 16.4 µM (inactive)
- GI50 [45]: 12.4 µM (inactive)
- GI50 [46]: 31.1 µM (inactive)
- GI50 [47]: 33.4 µM (inactive)
- GI50 [48]: 20.9 µM (inactive)
- GI50 [49]: 18.5 µM (inactive)
- GI50 [57]: 14.5 µM (inactive)
- GI50 [50]: 28.7 µM (inactive)
- GI50 [51]: 13.4 µM (inactive)
